# Laboratory results: US20110311601A1, “ANTIMICROBIAL MEDICAL DEVICES” (priority 2010, published 2011)
# Where no end group is shown, it is not given here.
# How the values were obtained:
# Assay in all cases: micro-dilution assay (MBC, LD90)
# Type in all cases: cell-based
# [1] = system: Corynebacterium amycolatum RV A2/97
# In short: (§1)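 Washed cells at 10^4 cells/ml in 10 mM sodium phosphate, pH 7.2, were exposed to hβD2 at final 0.0125–100 mg/l for 2 h (37° C bacteria, 30° C fungi). CFU were counted after overnight plating and expressed as % killing versus an untreated control; MBC = 99.9% kill, LD90 = 90% kill.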
# [2] = system: Serratia marcescens Mero 041/145 (wild-type)
# In short: as §1
# [3] = system: Cryptococcus neoformans ATCC 62066
# In short: as §1
# [4] = system: Staphylococcus aureus ATCC 43300 (MRSA)
# In short: as §1
# [5] = system: Proteus mirabilis UR 1354/03 (wild-type)
# In short: as §1
# [6] = system: Enterobacter aerogenes Va 12738/03 (wild-type)
# In short: as §1
# [7] = system: Enterobacter cloacae Va 12270/03 (wild-type)
# In short: as §1
# [8] = system: Proteus vulgaris BK 8730/99 (wild-type)
# In short: as §1
# [9] = system: Corynebacterium pseudodiphtheriae RV A1/95
# In short: as §1
# [10] = system: Candida parapsilosis ATCC 90018
# In short: as §1
# [11] = system: Prevotella intermedia ATCC 25611
# In short: as §1
# [12] = system: Citrobacter freundii BK 2122/00 (wild-type)
# In short: as §1
# [13] = system: Candida albicans C.a 39 (wild-type)
# In short: as §1
# [14] = system: Staphylococcus aureus (MRSA 358) (wild-type)
# In short: as §1
# [15] = system: Proteus vulgaris ATCC 13315
# In short: as §1
# [16] = system: Streptococcus pyogenes ATCC 12344
# In short: as §1
# [17] = system: Propionibacterium acnes NCTC 737
# In short: as §1
# [18] = system: Candida glabrata ATCC 90030
# In short: as §1
# [19] = system: Enterococcus faecium (VRE) W 354 (wild-type)
# In short: as §1
# [20] = system: Acinetobacter haemolyticus ATCC 17906
# In short: as §1
# [21] = system: Acinetobacter calcoaceticus ATCC 23055
# In short: as §1
substance,measurement,setting,value
"human β-defensin-2 (GIGDPVTCLKSGAICHPVFCPRRYKQIGTCGLPGTKCCKKP; ends and bridges not checked; cysteine pairing not given here) [hβD2, recombinant hβD2]",LD 90 = μg/ml 90% killing,[1],6.25 µg/mL
same,MBC = μg/ml 99.9% killing,[1],25 µg/mL
same,LD 90 = μg/ml 90% killing,[2],25 µg/mL
same,MBC = μg/ml 99.9% killing,[2],100 µg/mL
same,LD 90 = μg/ml 90% killing,[3],0.78 µg/mL
same,MBC = μg/ml 99.9% killing,[3],12.5 µg/mL
same,LD 90 = μg/ml 90% killing,[4],100 µg/mL
same,MBC = μg/ml 99.9% killing,[4],>100 µg/mL
same,LD 90 = μg/ml 90% killing,[5],100 µg/mL
same,MBC = μg/ml 99.9% killing,[5],>100 µg/mL
same,LD 90 = μg/ml 90% killing,[6],6.25 µg/mL
same,MBC = μg/ml 99.9% killing,[6],25 µg/mL
same,LD 90 = μg/ml 90% killing,[7],6.25 µg/mL
same,MBC = μg/ml 99.9% killing,[7],12.5 µg/mL
same,LD 90 = μg/ml 90% killing,[8],100 µg/mL
same,MBC = μg/ml 99.9% killing,[8],>100 µg/mL
same,LD 90 = μg/ml 90% killing,[9],12.5 µg/mL
same,MBC = μg/ml 99.9% killing,[9],12.5 µg/mL
same,LD 90 = μg/ml 90% killing,[10],12.5 µg/mL
same,MBC = μg/ml 99.9% killing,[10],25 µg/mL
same,LD 90 = μg/ml 90% killing,[11],3.125 µg/mL
same,MBC = μg/ml 99.9% killing,[11],3.125 µg/mL
same,LD 90 = μg/ml 90% killing,[12],6.25 µg/mL
same,MBC = μg/ml 99.9% killing,[12],25 µg/mL
same,LD 90 = μg/ml 90% killing,[13],12.5 µg/mL
same,MBC = μg/ml 99.9% killing,[13],50 µg/mL
same,LD 90 = μg/ml 90% killing,[14],100 µg/mL
same,MBC = μg/ml 99.9% killing,[14],>100 µg/mL
same,LD 90 = μg/ml 90% killing,[15],3.125 µg/mL
same,MBC = μg/ml 99.9% killing,[15],12.5 µg/mL
same,LD 90 = μg/ml 90% killing,[16],100 µg/mL
same,MBC = μg/ml 99.9% killing,[16],>100 µg/mL
same,LD 90 = μg/ml 90% killing,[17],50 µg/mL
same,MBC = μg/ml 99.9% killing,[17],100 µg/mL
same,LD 90 = μg/ml 90% killing,[18],50 µg/mL
same,MBC = μg/ml 99.9% killing,[18],>100 µg/mL
same,LD 90 = μg/ml 90% killing,[19],50 µg/mL
same,MBC = μg/ml 99.9% killing,[19],100 µg/mL
same,LD 90 = μg/ml 90% killing,[20],0.39 µg/mL
same,MBC = μg/ml 99.9% killing,[20],1.56 µg/mL
same,LD 90 = μg/ml 90% killing,[21],0.39 µg/mL
same,MBC = μg/ml 99.9% killing,[21],0.78 µg/mL
